Test results: PubChem BioAssay AID274 (DTP/NCI, 2004)
“And” between values parts separate entries of the source, which are not always exact repeats. Identical values can stand only once. Inconclusive results and toxic doses are left out.

Tested on: BDF1 mice, Lewis lung carcinoma iv, survival T/C
Experiment: NCI In Vivo Anticancer Drug Screen. Data for tumor model Lewis Lung Carcinoma (intravenous) in B6D2F1 (BDF1) mice
Conditions: endpoint: median survival time, higher = longer survival
Description: The antitumor activity of compounds was measured in mice bearing transplantable tumors. Survival or tumor size were measured and the results are expressed as the measurement made in the treated group (T) divided by the measurement made in the vehicle treated control group (C). The tumor model used in this assay is Lewis Lung Carcinoma (intravenous) in B6D2F1 (BDF1) mice

[1] = dose: 12.5 mg/kg/injection, schedule: Q01DX009 (ip), vehicle: saline with Tween-80
[2] = dose: 25.0 mg/kg/injection, schedule: Q01DX009 (ip), vehicle: saline with Tween-80
[3] = dose: 50.0 mg/kg/injection, schedule: Q01DX009 (ip), vehicle: saline with Tween-80
[4] = dose: 100.0 mg/kg/injection, schedule: Q01DX009 (ip), vehicle: saline with Tween-80
[5] = dose: 200.0 mg/kg/injection, schedule: Q01DX009 (ip), vehicle: saline with Tween-80
[6] = dose: 5.0 mg/kg/injection, schedule: Q01DX009 (ip), vehicle: saline

Nc1ccnc(=O)[nH]1
T/C (dose: 32.0 mg/kg/injection, schedule: Q01DX009 (ip), vehicle: Klucel (hydroxypropylcellulose) (HPC)): 111 % of control | T/C (dose: 32.0 mg/kg/injection, schedule: Q01DX009 (ip), vehicle: saline with Tween-80): 103 % of control | T/C (dose: 64.0 mg/kg/injection, schedule: Q01DX009 (ip), vehicle: Klucel (hydroxypropylcellulose) (HPC)): 98 % of control | T/C (dose: 128.0 mg/kg/injection, schedule: Q01DX009 (ip), vehicle: Klucel (hydroxypropylcellulose) (HPC)): 95 % of control | T/C (dose: 256.0 mg/kg/injection, schedule: Q01DX009 (ip), vehicle: Klucel (hydroxypropylcellulose) (HPC)): 102 % of control | T/C (dose: 256.0 mg/kg/injection, schedule: Q01DX009 (ip), vehicle: saline with Tween-80): 119 % of control | T/C (dose: 512.0 mg/kg/injection, schedule: Q01DX009 (ip), vehicle: Klucel (hydroxypropylcellulose) (HPC)): 86 % of control | T/C (dose: 512.0 mg/kg/injection, schedule: Q01DX009 (ip), vehicle: saline with Tween-80): 107 % of control

CC1=CC(=NN=c2cc(C)n([O-])c(C)c2)C=C(C)[N+]1=O
T/C [1]: 102 % of control | T/C [2]: 100 % of control | T/C [3]: 104 % of control | T/C [4]: 105 % of control | T/C [5]: 86 % of control

CC(C)CC(NC(=O)CF)C(=O)O (centres undefined)
T/C (dose: 0.31 mg/kg/injection, schedule: Q01DX009 (ip), vehicle: saline): 98 % of control | T/C (dose: 0.63 mg/kg/injection, schedule: Q01DX009 (ip), vehicle: saline): 94 % of control | T/C (dose: 1.25 mg/kg/injection, schedule: Q01DX009 (ip), vehicle: saline): 90 % of control | T/C (dose: 2.5 mg/kg/injection, schedule: Q01DX009 (ip), vehicle: saline): 102 % of control | T/C [6]: 91 % of control

O=P1(NCCCl)OCCC(OO)N1CCCl (centres undefined)
T/C (dose: 69.0 mg/kg/injection, schedule: Q01DX001 (ip), vehicle: Klucel (hydroxypropylcellulose) (HPC)): 150 % of control | T/C (dose: 101.0 mg/kg/injection, schedule: Q01DX001 (ip), vehicle: Klucel (hydroxypropylcellulose) (HPC)): 117 % of control | T/C (dose: 230.0 mg/kg/injection, schedule: Q01DX001 (ip), vehicle: Klucel (hydroxypropylcellulose) (HPC)): 160 % of control

NC(N)=NC(N)=Nc1ccc(-c2ccc(N=C(N)N=C(N)N)cc2)cc1
T/C (dose: 0.78 mg/kg/injection, schedule: Q01DX009 (ip), vehicle: saline with Tween-80): 110 % of control | T/C (dose: 1.56 mg/kg/injection, schedule: Q01DX009 (ip), vehicle: saline with Tween-80): 110 % of control | T/C (dose: 3.13 mg/kg/injection, schedule: Q01DX009 (ip), vehicle: saline with Tween-80): 99 % of control | T/C (dose: 6.25 mg/kg/injection, schedule: Q01DX009 (ip), vehicle: saline with Tween-80): 90 % of control | T/C [1]: 113 % of control

[N-]=[N+]=CC(=O)CCC(N)C(=O)O (centres undefined)
T/C (dose: 0.01 mg/kg/injection, schedule: Q01DX009 (ip), vehicle: saline): 95 % of control | T/C (dose: 0.02 mg/kg/injection, schedule: Q01DX009 (ip), vehicle: saline): 98 % of control | T/C (dose: 0.05 mg/kg/injection, schedule: Q01DX009 (ip), vehicle: saline): 108 % of control | T/C (dose: 0.1 mg/kg/injection, schedule: Q01DX009 (ip), vehicle: saline): 109 % of control and 111 % of control

CCCCCCCCCCCCCCCCCCCCCC(=O)Nc1ccn(C2OC(CO)C(O)C2O)c(=O)n1 (centres undefined)
T/C [2]: 94 % of control | T/C [3]: 124 % of control | T/C [4]: 113 % of control | T/C [5]: 120 % of control

COCCOC
T/C (dose: 100.0 mg/kg/injection, schedule: Q01DX009 (ip), vehicle: saline): 100 % of control | T/C (dose: 200.0 mg/kg/injection, schedule: Q01DX009 (ip), vehicle: saline): 102 % of control | T/C (dose: 400.0 mg/kg/injection, schedule: Q01DX009 (ip), vehicle: saline): 100 % of control

Cc1c(N)nc([C@H](CC(N)=O)NC[C@H](N)C(N)=O)nc1C(=O)N[C@H](C(=O)N[C@H](C)[C@@H](O)CC(=O)N[C@H](C(=O)NC(O[C@@H]1O[C@@H](C)[C@@H](N)[C@@H](O)[C@H]1O)C(O)c1nc(-c2nc(C(=O)NCCCCN)cs2)cs1)[C@@H](C)O)[C@@H](O[C@@H]1O[C@@H](CO)[C@@H](O)[C@H](O)[C@@H]1O[C@H]1O[C@H](CO)[C@@H](O)[C@H](OC(N)=O)[C@@H]1O)c1c[nH]cn1 (some centres undefined)
T/C (dose: 1.0 mg/kg/injection, schedule: Q01DX009 (ip), vehicle: saline): 109 % of control | T/C (dose: 2.0 mg/kg/injection, schedule: Q01DX009 (ip), vehicle: saline): 114 % of control

Nc1nc(=S)c2ncn(C3OC(CO)CC3O)c2[nH]1 (centres undefined)
T/C [6]: 115 % of control | T/C (dose: 10.0 mg/kg/injection, schedule: Q01DX009 (ip), vehicle: saline): 101 % of control | T/C (dose: 20.0 mg/kg/injection, schedule: Q01DX009 (ip), vehicle: saline): 87 % of control

NCCCNCCSP(=O)(O)O
T/C (dose: 300.0 mg/kg/injection, schedule: Q01DX001 (ip), vehicle: saline): 88 % of control | T/C (dose: 500.0 mg/kg/injection, schedule: Q01DX001 (ip), vehicle: saline): 88 % of control
